What was measured:
[1] = tested on: huCART19 cells co-cultured with Nalm-6; assay: CART proliferation in 4 day co-culture with Nalm-6 in the presence of RAD001; format: cell-based, human
Protocol: The effect of low doses of RAD001 on CAR T cell proliferation in vitro was evaluated by co-culturing CART-expressing cells with target cells in the presence of different concentrations of RAD001.
A humanized, anti-human CD19 CAR (huCART19) lentiviral transfer vector was used to produce the genomic material packaged into VSVg pseudotyped lentiviral particles. The amino acid and nucleotide sequence of the humanized anti-human CD19 CAR (huCART19) is CAR 1, ID 104875 described in PCT publication, WO2014/153270, filed Mar. 15, 2014, and is designated SEQ ID NOs. 85 and 31 therein.
Lentiviral transfer vector DNA is mixed with the three packaging components VSVg env, gag/pol and rev in combination with lipofectamine reagent to transfect Lenti-X 293T cells. Medium is changed after 24 h and 30 h thereafter, the virus-containing media is collected, filtered and stored at −80° C. CARTs are generated by transduction of fresh or frozen naïve T cells obtained by negative magnetic selection of healthy donor blood or leukopak. T cells are activated by incubation with anti-CD3/anti-CD28 beads for 24 h, after which viral supernatant or concentrated virus (MOI=2 or 10, respectively) is added to the cultures. The modified T cells are allowed to expand for about 10 days. The percentage of cells transduced (expressing the CARs on the cell surface) and the level of CAR expression (relative fluorescence intensity, Geo Mean) are determined by flow cytometric analysis between days 7 and 9. The combination of slowing growth rate and T cell size approaching ˜350 fL determines the state for T cells to be cryopreserved for later analysis.
To evaluate the functionality of CARTs, the T cells are thawed and counted, and viability is assessed by Cellometer. The number of CAR-positive cells in each culture is normalized using non-transduced T cells (UTD). […]
For measuring the proliferation of CARTs, T cells are cultured with target cells at a ratio of 1:1. […] The number of T cells is assessed by flow cytometry using counting beads as reference.

[2] = tested on: huCAR19 CAR T cells; assay: In vivo proliferation of humanized CD19 CAR T cells with and without RAD001 dosing; set-up: species or system NSG mice
Protocol: This example evaluates the ability of huCAR19 cells to proliferate in vivo with different concentrations of RAD001.
(§1) Tumor implantation: NALM6-luc cells were grown and expanded in vitro in RPMI supplemented with 10% heat inactivated fetal bovine serum. The cells were then transferred to a 15 ml conical tube and washed twice with cold sterile PBS. NALM6-luc cells were then counted and resuspended at a concentration of 10×10^6 cells per milliliter of PBS. The cells were placed on ice and immediately (within one hour) implanted in the mice. NALM6-luc cells were injected intravenously via the tail vein in a 100 μl volume, for a total of 1×10^6 cells per mouse.
CAR T cell dosing: Mice were administered 5×10^6 CAR T cells 7 days after tumor implantation. Cells were partially thawed in a 37 degree Celsius water bath and then completely thawed by the addition of 1 ml of cold sterile PBS to the tube containing the cells. The thawed cells were transferred to a 15 ml falcon tube and adjusted to a final volume of 10 mls with PBS. The cells were washed twice at 1000 rpm for 10 minutes each time and then counted on a hemocytometer. T cells were then resuspended at a concentration of 50×10^6 CAR T cells per ml of cold PBS and kept on ice until the mice were dosed. The mice were injected intravenously via the tail vein with 100 μl of the CAR T cells for a dose of 5×10^6 CAR T cells per mouse. Eight mice per group were treated either with 100 μl of PBS alone (PBS), or humanized CD19 CAR T cells.
(§2) RAD001 dosing: A concentrated micro-emulsion of 50 mg equal to 1 mg RAD001 was formulated and then resuspended in D5W (dextrose 5% in water) at the time of dosing. Mice were orally dosed daily (via oral gavage) with 200 μl of the desired doses of RAD001.
Based on these doses, huCAR19 CAR T cells were dosed with and without RAD001 to determine the proliferative ability of these cells. The highest dose used was 3 mg/kg based on the levels of RAD001 in the blood 24 hours after dosing. As the concentration of RAD001 was above 10 nM 24 hours after the final dose of RAD001, several lower doses of RAD001 were used in the in vivo study with CAR T cells. The CAR T cells were dosed IV one day prior to the start of the daily oral RAD001 dosing. Mice were monitored via FACS for T cell expansion.

[3] = Pharmacokinetic analysis of RAD001 in blood of NSG mice with NALM6 tumors; format: in vivo
Protocol: as §2
PK analysis: Mice were dosed daily with RAD001 starting 7 days post tumor implantation. Dosing groups were as follows: 0.3 mg/kg, 1 mg/kg, 3 mg/kg, and 10 mg/kg. Mice were bled on days 0 and 14 following the first and last dose of RAD001, at the following time points for PK analysis: 15 minutes, 30 minutes, 1 hour, 2 hours, 4 hours, 8 hours, 12 hours, and 24 hours.

[4] = tested on: NALM6-luc tumors; assay: NALM6-luc tumor growth with daily RAD001 dosing; format: in vivo, NSG mice; conditions: daily oral dosing of RAD001 alone, 0.3, 1, 3 and 10 mg/kg; FIG. 7
Protocol: NALM6-luc cells: The NALM6 human acute lymphoblastic leukemia (ALL) cell line was developed from the peripheral blood of a patient with relapsed ALL. The cells were then tagged with firefly luciferase. These suspension cells grow in RPMI supplemented with 10% heat inactivated fetal bovine serum.
Mice: 6 week old NSG (NOD.Cg-Prkdc^scidIl2rg^tm1Wjl/SzJ) mice were received from the Jackson Laboratory (stock number 005557).
as §1, §2
PK analysis: Mice were dosed daily with RAD001 starting 7 days post tumor implantation. Dosing groups were as follows: 0.3 mg/kg, 1 mg/kg, 3 mg/kg, and 10 mg/kg. […]

concentration at 24 h ([3]; NSG, mouse, blood, lowest dose tested (0.3 mg/kg), oral, day 0 and day 14 PK, read-out: RAD001 concentrations in the blood 24 hours after dosing): > 10 nM
concentration of RAD001 24 hours after the final dose ([3]; blood, NSG mice with NALM6 tumors): above 10 nM
stability in the blood of tumor bearing mice ([3]; daily oral RAD001, FIGS. 8A and 8B): fairly stable
Structure (SMILES): CO[C@H]1C[C@@H]2CC[C@@H](C)[C@@](O)(O2)C(=O)C(=O)N2CCCC[C@H]2C(=O)O[C@H]([C@H](C)C[C@@H]2CC[C@@H](OCCO)[C@H](OC)C2)CC(=O)[C@H](C)/C=C(\C)[C@@H](O)[C@@H](OC)C(=O)[C@H](C)C[C@H](C)/C=C/C=C/C=C/1C [RAD001, (1R,9S,12S,15R,16E,18R,19R,21R,23S,24E,26E,28E,30S,32S,35R)-1,18-dihydroxy-12-{(1R)-2-[(1S,3R,4R)-4-(2-hydroxyethoxy)-3-methoxycyclohexyl]-1-methylethyl}-19,30-dimethoxy-15,17,21,23,29,35-hexamethyl-11,36-dioxa-4-aza-tricyclo[30.3.1.04,9]hexatriaconta-16,24,26,28-tetraene-2,3,10,14,20-pentaone]
proliferation of huCART19 compared with no RAD001 ([1]; 0.0032 and 0.016 nM RAD001, 4 day co-culture with Nalm-6): higher than observed without the addition of RAD001
RAD001 concentration at which huCART19 cells expanded ([1]; 4 day co-culture with Nalm-6 at 1:1, to a lesser extent at higher concentrations, FIG. 6): less than 0.016 nM
proliferation of CAR-expressing, transduced T cells ([1]; low doses of RAD001, co-culture with Nalm-6, 4 days, FIG. 6 legend): enhanced
CAR T cell proliferation relative to normal level of huCAR19 proliferation ([2]; RAD001 0.003 mg/kg daily, FIG. 9 legend): enhancement in CAR T cell proliferation
proliferation of the CAR T cells in vivo ([2]; lowest doses of RAD001, daily oral, huCAR19 CAR T cells IV one day before, FIGS. 9A and 9B): enhanced proliferation
enhanced proliferation, CD4+ CAR T cells compared with CD8+ CAR T cells ([2]; lowest doses of RAD001, FIG. 9A): more evident and prolonged
proliferation of CD8+ CAR T cells ([2]; lowest doses of RAD001, FIG. 9B): enhanced proliferation can be seen at early time points
growth of NALM6-luc tumors [4]: did not have an impact
